Reference: US12146004B2, “Polymyxin compounds and uses thereof” (priority 2014, dated 2024)
In brackets after ≈: the same amount, converted by molar mass.

What was measured:
Format in all cases: cell-based
[1] = system: HK-2 cells
Description: Values are reported relative to Polymyxin B.

[2] = system: Escherichia coli, Pseudomonas aeruginosa, Klebsiella pneumoniae and Acinetobacter baumannii; assay: Susceptibility testing, comparisons in words across the Gram negative pathogens; conditions: versus comparator compound
Method: To evaluate the potency and spectrum of the compounds, susceptibility testing was performed against up to nine strains of each of the Gram negative pathogens, Escherichia coli, Pseudomonas aeruginosa, Klebsiella pneumoniae and Acinetobacter baumannii.

[3] = system: Acinetobacter baumannii
In short: (§1)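 Susceptibility testing covered up to nine strains of each Gram-negative pathogen, among them resistant strains and strains with elevated MICs to Polymyxin. Values are MICs in μg/mL.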

[4] = system: Klebsiella pneumoniae
In short: as §1

[5] = system: Escherichia coli
In short: as §1

[6] = system: Pseudomonas aeruginosa
In short: as §1

HK-2 IC50 [1]: 32 µg/mL
MIC A. baumanii 053 [3]: 2 µg/mL (≈ 1.68 µM)
MIC A. baumanii 056 [3]: 0.5 µg/mL (≈ 0.419 µM)
MIC A. baumanii ATCC BAA-747 [3]: 0.5 µg/mL (≈ 0.419 µM)
MIC K. pneumoniae 063 [4]: 4 µg/mL (≈ 3.35 µM)
MIC K. pneumoniae 064 [4]: 2 µg/mL (≈ 1.68 µM)
MIC K. pneumoniae 065 [4]: 1 µg/mL (≈ 0.839 µM)
MIC K. pneumoniae 066 [4]: 1 µg/mL (≈ 0.839 µM)
MIC K. pneumoniae 067 [4]: 8 µg/mL (≈ 6.71 µM)
MIC K. pneumoniae ATCC 4352 [4]: 0.5 µg/mL (≈ 0.419 µM)
MIC E. coli 058 [5]: 0.5 µg/mL (≈ 0.419 µM)
MIC E. coli 059 [5]: 0.5 µg/mL (≈ 0.419 µM)
MIC E. coli 060 [5]: 0.5 µg/mL (≈ 0.419 µM)
MIC E. coli 061 [5]: 2 µg/mL (≈ 1.68 µM)
MIC E. coli ATCC 25922 [5]: 0.5 µg/mL (≈ 0.419 µM)
MIC P. aeruginosa 068 [6]: 1 µg/mL (≈ 0.839 µM)
MIC P. aeruginosa 070 [6]: 2 µg/mL (≈ 1.68 µM)
MIC P. aeruginosa ATCC 27853 [6]: 1 µg/mL (≈ 0.839 µM)
Structure (SMILES): CC(C)CC1CNCC(C(=O)N[C@H](C(=O)N[C@@H](CN)C(=O)N[C@H]2CCNC(=O)[C@H]([C@@H](C)O)NC(=O)[C@H](CCN)NC(=O)[C@H](CCN)NC(=O)[C@H](CC(C)C)NC(=O)[C@@H](Cc3ccc(-c4ccccc4)cc3)NC(=O)[C@H](CCN)NC2=O)C(C)O)C1 (single isomer, unassigned; isomer 2) [Example 4, (trans-5-(isobutyl-piperidine)-3-carbonyl L-Thr-L-Dap-polymyxin [D-(4-phenyl)Phe]-6]heptapeptide. Isomer 2]
activity against polymyxin resistant strains [2]: significantly improves of activity against resistant strains
